According to patent US8288548B2, “Oxazolo[5-4-b]pyridin-5-yl compounds” (Eli Lilly and Company, priority 2010, dated 2012):
Marks after values point to notes of the source that are not given here.

How the values were obtained:
[1] = tested on: A2780 human ovarian carcinoma cells; test: A2780 xenograft model, tumor growth inhibition; type: in vivo, CD1 nu/nu mice; conditions: 4 day on, 3 d off
Experimental: (§1) Female CD1 nu/nu mice are obtained from Charles River Laboratories at approximately 22-25 g. After 1 week acclimation, 2×10^6 A2780 human ovarian carcinoma cells are injected subcutaneously in the rear flank of each mouse in a 0.2 mL volume in a 1:1 mixture of cell culture media and BD […]™ matrix. Tumor size is monitored by caliper measurement twice per week. When the average tumor size reaches 150 mm^3, animals are randomized into groups of 10. p38 MAP kinase inhibitor treatment is initiated after randomization. Example 2 is dosed orally in a 0.2 mL volume of 1% HEC, 0.25% TWEEN® 80, 0.05% antifoam (HEC/TWEEN®). The compound is dosed at doses of 1, 3, and 10 mg/kg. Dosing is performed three times per day (TID) on a schedule of 4 days on, 3 days off. Three cycles of dosing is performed. Tumor volume is monitored twice per week during the dosing period, and efficacy (tumor growth inhibition) is monitored relative to a vehicle control group (n=10 animals). At 1, 2 and 8 hours after the last p38 MAP kinase inhibitor dose, plasma is obtained from animals to determine the circulating levels of compound in the animals.

[2] = Plasma concentration after last dose in the A2780 xenograft model; type: in vivo, CD1 nu/nu mice
Experimental: as §1

OPM-2 cells = test: OPM-2 multiple myeloma xenograft model; type: in vivo, CB-17 SCID mice; conditions: PO, BID
Experimental: Female CB-17 SCID mice are obtained from Taconic at 20-22 g weight. After acclimating for one week, mice are irradiated with a dose of 2.5 Gray. Within 24 hours following irradiation, mice are injected sub-cutaneously in the rear flank with 1.0×10^7 OPM-2 cells in a 0.2 mL volume in a 1:1 mixture of cell culture media and BD […]™ matrix. Tumor size is monitored by caliper measurement twice per week. When the tumor size reaches 100-150 mm^3, animals are randomized into dose groups. Compound treatment is initiated after randomization. Example 2 is dosed orally in a 0.2 mL volume of 1% HEC, 0.25% TWEEN® 80, 0.05% antifoam (HEC/TWEEN®). The compound is dosed at doses of 15 and 30 mg/kg. Dosing is performed two times per day (BID) for 28 days of treatment. Tumor volume is monitored twice per week during the dosing period, and efficacy (tumor growth inhibition) is monitored relative to a vehicle control group (n=10 animals).

[3] = tested on: 786-O human renal cell carcinoma cells; test: 786-O xenograft model in combination with sunitinib; type: in vivo, athymic nude mice; conditions: BID x 28
Experimental: Female athymic nude mice are obtained from Harlan Labs at a weight of 24-26 g. […] Tumor size is monitored by caliper measurement twice per week. […] The compound is dosed orally in a 0.2 mL volume of 1% HEC, 0.25% TWEEN® 80, 0.05% antifoam (HEC/TWEEN®). […] Tumor volume is monitored twice per week and efficacy (tumor growth inhibition) is compared relative to vehicle-treated control animals. […] Statistical assessment of synergy was performed using two-way repeated measures analysis of variance on log tumor volume vs. time.

Which results are given for “2-[5-(2,4-Difluorophenyl)-4-[2-[[(1S)-3-methoxy-1-methyl-propyl]amino]oxazolo[5,4-b]pyridin-5-yl]-1H-imidazol-2-yl]-2-methyl-propan-1-ol, methanesulfonate [Example 2]”?
Tumor Growth Inhibition (%) ([1]; 1 mg/kg PO TID, Day 20): 70.6%; Tumor Growth Inhibition (%) ([1]; 1 mg/kg PO TID, Day 23): 76.6%; Tumor Growth Inhibition (%) ([1]; 1 mg/kg PO TID, Day 26): 76%; Tumor Growth Inhibition (%) ([1]; 1 mg/kg PO TID, Day 29 (final)): 78.3%; Tumor Growth Inhibition (%) ([1]; 3 mg/kg PO TID, Day 20): 32.5%; Tumor Growth Inhibition (%) ([1]; 3 mg/kg PO TID, Day 23): 47.7%; Tumor Growth Inhibition (%) ([1]; 3 mg/kg PO TID, Day 26): 42.7%; Tumor Growth Inhibition (%) ([1]; 3 mg/kg PO TID, Day 29 (final)): 37.7%; Tumor Growth Inhibition (%) ([1]; 10 mg/kg PO TID, Day 20): 60%; Tumor Growth Inhibition (%) ([1]; 10 mg/kg PO TID, Day 23): 71.2%; Tumor Growth Inhibition (%) ([1]; 10 mg/kg PO TID, Day 26): 72.8%; Tumor Growth Inhibition (%) ([1]; 10 mg/kg PO TID, Day 29 (final)): 74.8%; Mean Plasma Concentration (μM) at time (hour) post-last dose ([2]; 1 mg/kg PO TID, 1 hour post-last dose): 0.0263 µM; Mean Plasma Concentration (μM) at time (hour) post-last dose ([2]; 1 mg/kg PO TID, 2 hour post-last dose): 0.0146 µM; Mean Plasma Concentration (μM) at time (hour) post-last dose ([2]; 3 mg/kg PO TID, 1 hour post-last dose): 0.0526 µM; Mean Plasma Concentration (μM) at time (hour) post-last dose ([2]; 3 mg/kg PO TID, 2 hour post-last dose): 0.0604 µM; Mean Plasma Concentration (μM) at time (hour) post-last dose ([2]; 3 mg/kg PO TID, 3 hour post-last dose): 0.0042 µM; Mean Plasma Concentration (μM) at time (hour) post-last dose ([2]; 10 mg/kg PO TID, 1 hour post-last dose): 0.4952 µM; Mean Plasma Concentration (μM) at time (hour) post-last dose ([2]; 10 mg/kg PO TID, 2 hour post-last dose): 0.3978 µM; Mean Plasma Concentration (μM) at time (hour) post-last dose ([2]; 10 mg/kg PO TID, 3 hour post-last dose): 0.0243 µM; Mean tumor size (mm3) (OPM-2 cells; 15 mpk, Day 4): 101.69 mm3; Mean tumor size (mm3) (OPM-2 cells; 15 mpk, Day 8): 87.96 mm3; Mean tumor size (mm3) (OPM-2 cells; 15 mpk, Day 11): 104.9 mm3; Mean tumor size (mm3) (OPM-2 cells; 15 mpk, Day 15): 104.21 mm3; Mean tumor size (mm3) (OPM-2 cells; 15 mpk, Day 18): 120.17 mm3; Mean tumor size (mm3) (OPM-2 cells; 15 mpk, Day 21): 182.47 mm3; Mean tumor size (mm3) (OPM-2 cells; 15 mpk, Day 25): 169.53 mm3; Mean tumor size (mm3) (OPM-2 cells; 15 mpk, Day 29): 214.28 mm3; Mean tumor size (mm3) (OPM-2 cells; 15 mpk, Day 33): 326.29 mm3; Mean tumor size (mm3) (OPM-2 cells; 15 mpk, Day 36): 384.59 mm3; Mean tumor size (mm3) (OPM-2 cells; 15 mpk, Day 43): 628.46 mm3; Mean tumor size (mm3) (OPM-2 cells; 15 mpk, Day 46): 700.62 mm3; Mean tumor size (mm3) (OPM-2 cells; 15 mpk, Day 49): 937.29 mm3; Mean tumor size (mm3) (OPM-2 cells; 15 mpk, Day 53): 1138.19 mm3; Mean tumor size (mm3) (OPM-2 cells; 30 mpk, Day 4): 97.8 mm3; Mean tumor size (mm3) (OPM-2 cells; 30 mpk, Day 8): 90.78 mm3; Mean tumor size (mm3) (OPM-2 cells; 30 mpk, Day 11): 118.46 mm3; Mean tumor size (mm3) (OPM-2 cells; 30 mpk, Day 15): 95.34 mm3; Mean tumor size (mm3) (OPM-2 cells; 30 mpk, Day 18): 103.71 mm3; Mean tumor size (mm3) (OPM-2 cells; 30 mpk, Day 21): 115.16 mm3; Mean tumor size (mm3) (OPM-2 cells; 30 mpk, Day 25): 155.27 mm3; Mean tumor size (mm3) (OPM-2 cells; 30 mpk, Day 29): 154.83 mm3; Mean tumor size (mm3) (OPM-2 cells; 30 mpk, Day 33): 224.14 mm3; Mean tumor size (mm3) (OPM-2 cells; 30 mpk, Day 36): 243.32 mm3; Mean tumor size (mm3) (OPM-2 cells; 30 mpk, Day 43): 407.07 mm3; Mean tumor size (mm3) (OPM-2 cells; 30 mpk, Day 46): 527.14 mm3; Mean tumor size (mm3) (OPM-2 cells; 30 mpk, Day 49): 642.22 mm3; Mean tumor size (mm3) (OPM-2 cells; 30 mpk, Day 53): 812.48 mm3

For `COCC[C@H](C)Nc1nc2ccc(-c3nc(C(C)(C)CO)[nH]c3-c3ccc(F)cc3F)nc2o1.Cl` [Example 3, 2-[5-(2,4-Difluorophenyl)-4-[2-[[(1S)-3-methoxy-1-methyl-propyl]amino]oxazolo[5,4-b]pyridin-5-yl]-1H-imidazol-2-yl]-2-methyl-propan-1-ol, hydrochloride], which “% Tumor Growth Inhibition” value ([3]; Example 3 15 mg/kg PO, Day 17) is on record?
The value was −35.5%.

And the “% Tumor Growth Inhibition” value ([3]; Example 3 15 mg/kg PO, Day 21)?
Its value is −23%.

And the “% Tumor Growth Inhibition” value ([3]; Example 3 15 mg/kg PO, Day 24)?
The value was −52.4%.

And the “% Tumor Growth Inhibition” value ([3]; Example 3 15 mg/kg PO, Day 28)?
Its value is −74.1* %.

And the “% Tumor Growth Inhibition” value ([3]; Example 3 15 mg/kg PO, Day 31)?
Its value is −58.8* %.

Which results are given for `CCN(CC)CCNC(=O)c1c(C)[nH]c(/C=C2\C(=O)Nc3ccc(F)cc32)c1C` [Sunitinib]?
% Tumor Growth Inhibition ([3]; Sunitinib 10 mg/kg PO, Day 17): −1.6%; % Tumor Growth Inhibition ([3]; Sunitinib 10 mg/kg PO, Day 21): 2.9%; % Tumor Growth Inhibition ([3]; Sunitinib 10 mg/kg PO, Day 24): −16.3%; % Tumor Growth Inhibition ([3]; Sunitinib 10 mg/kg PO, Day 28): −21.2%; % Tumor Growth Inhibition ([3]; Sunitinib 20 mg/kg PO, Day 17): −55.9%; % Tumor Growth Inhibition ([3]; Sunitinib 20 mg/kg PO, Day 21): 31.5%; % Tumor Growth Inhibition ([3]; Sunitinib 20 mg/kg PO, Day 24): 18%; % Tumor Growth Inhibition ([3]; Sunitinib 20 mg/kg PO, Day 28): 34.5%; % Tumor Growth Inhibition ([3]; Sunitinib 20 mg/kg PO, Day 31): 35.4* %
